Measurements as given in patent publication US20240309004A1, “SELECTIVE CYCLIN-DEPENDENT KINASE INHIBITORS AND METHODS OF THERAPEUTIC USE THEREOF” (ViroKyne Therapeutics, LLC, priority 2021, published 2024).
pEC50, pIC50: −log10 of the molar value.

Columns and labels:
[1] = Cytotoxicity concurrent with HHV-6B primary assay; assay type: cell-based; conditions: human, MOLT-3 cells
[2] = Cytotoxicity concurrent with HCMV AD169 primary assay; assay type: cell-based, human; conditions: human, CC50
[3] = test system: Human herpes virus 8 strain BCBL-1; assay: Human herpes virus 8 primary assay, BCBL-1 cells; assay type: cell-based, Human Herpesvirus 8; conditions: Human gammaherpesvirus 8, BCBL1, strain BCBL-1, BCBL-1 cells
CDK9/cyclin T1 = CDK9/cyclin T1 (Homo sapiens (Human), UniProt P50750); assay: Kinase activity assay, CDK9/cyclin T1; assay type: biochemical; conditions: Table 3.1.2; 10 μM ATP; 10-dose triplicate starting at 9.827 μM; unit not printed (table 3.1.1 prints M); read-out: CDK9/cyclin T1 kinase activity (IC50)
[4] = Cytotoxicity concurrent with HPV11 primary assay; assay type: cell-based; conditions: human, C-33 A cells
Text: (§1) An HPV11 replicon assay was developed and expresses the essential E1 and E2 proteins from the native promoter. The E2 origin binding protein interacts with the virus origin of replication and recruits the E1 replicative helicase which unwinds the DNA and helps to recruit the cellular DNA replication machinery (including DNA polymerases, type I and type II topoisomerases, DNA ligase, single-stranded DNA binding proteins, proliferating cell nuclear antigen). The replication complex then drives the amplification of the replicon which can be assessed by the expression of a destabilized NanoLuc reporter gene carried on the replicon. In this assay, the replicon (pMP619) is transfected into C-33 A cells grown as monolayers in 384-well plates. At 48 h post transfection, the enzymatic activity of the destabilized NanoLuc reporter is assessed with NanoGlo reagent. […] . Beadle et al., 2016.

[5] = test system: Human papillomavirus 11 strain HE611260.1; assay: Human papillomavirus 11 primary assay (replicon), C-33 A cells; assay type: cell-based; conditions: strain HE611260.1, C-33 A cells
Text: as §1

HCMV strain AD169 = assay: HCMV primary assay (CPE), strain AD169, HFF cells; assay type: cell-based, Human Cytomegalovirus; conditions: Human betaherpesvirus 5, HCMV primary assay, virus strain AD169, HFF cells
Method: The antiviral activity of the compound against HCMV in the described Primary assay was measured by treating primary Human foreskin fibroblast (HFF) cells infected with HCMV with a range of compound concentrations—description of methods for this assay can be found in section 1.3.2.1. […] . Additional tested assay parameters in this Primary assay can be found in Table 3.2.1 and include EC90, S150, and S190 values—descriptions of those data points can be found in section 3.2.1.

[6] = Metabolic stability in mice liver microsomes; conditions: mice liver microsomes, 1 μM compound, 1 mM NADPH, 60 min
Method: Potassium phosphate buffer (Kphos) was prepared by adding 0.647 g potassium phosphate monobasic (KH2PO4) and 3.527 g potassium phosphate dibasic (K2HPO4) to 400 mL of Milli-Q water. pH of the buffer was adjusted to 7.4 and volume was made up to 500 mL.
Stock solutions of the test compounds were prepared in DMSO at a concentration of 1 mM.
To this microsomal mix 1.42 μL (1 mM) of test compound and positive control were spiked, from this mix 70 μL was transferred to 96 well plate and pre-incubated at 37° C. for 5 min. […] The plates were centrifuged at 4000 RPM for 15 min and 100 μL aliquots were submitted for analysis by LC-MS/MS.
Samples were monitored for parent compound disappearance in MRM mode using LC-MS/MS. The LC-MS/MS conditions and MRM chromatogram will be provided as per client request.
The peak area ratios of analyte versus internal standard were used to calculate the % remaining at the end of 60 minutes in presence NADPH.

[7] = test system: Human herpes virus 6B strain Z29; assay: Human herpes virus 6B primary assay, strain Z29, MOLT-3 cells; assay type: cell-based, Human Herpesvirus 6B; conditions: Human betaherpesvirus 6B
[8] = Cytotoxicity concurrent with HHV-8 primary assay; assay type: cell-based; conditions: human, BCBL-1 cells

Chain of CDK9/cyclin T1 (P50750 whole entry): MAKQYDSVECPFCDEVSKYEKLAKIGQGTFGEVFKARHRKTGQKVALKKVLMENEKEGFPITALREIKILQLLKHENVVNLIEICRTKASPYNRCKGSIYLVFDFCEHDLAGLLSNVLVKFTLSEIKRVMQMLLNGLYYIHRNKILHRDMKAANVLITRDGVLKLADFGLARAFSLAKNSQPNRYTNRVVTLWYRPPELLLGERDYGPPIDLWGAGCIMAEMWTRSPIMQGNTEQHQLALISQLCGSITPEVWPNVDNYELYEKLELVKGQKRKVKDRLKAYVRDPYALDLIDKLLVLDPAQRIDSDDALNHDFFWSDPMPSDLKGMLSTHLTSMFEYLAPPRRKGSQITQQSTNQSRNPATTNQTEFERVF
Chain of CDK9/cyclin T1 (O60563 whole entry partner): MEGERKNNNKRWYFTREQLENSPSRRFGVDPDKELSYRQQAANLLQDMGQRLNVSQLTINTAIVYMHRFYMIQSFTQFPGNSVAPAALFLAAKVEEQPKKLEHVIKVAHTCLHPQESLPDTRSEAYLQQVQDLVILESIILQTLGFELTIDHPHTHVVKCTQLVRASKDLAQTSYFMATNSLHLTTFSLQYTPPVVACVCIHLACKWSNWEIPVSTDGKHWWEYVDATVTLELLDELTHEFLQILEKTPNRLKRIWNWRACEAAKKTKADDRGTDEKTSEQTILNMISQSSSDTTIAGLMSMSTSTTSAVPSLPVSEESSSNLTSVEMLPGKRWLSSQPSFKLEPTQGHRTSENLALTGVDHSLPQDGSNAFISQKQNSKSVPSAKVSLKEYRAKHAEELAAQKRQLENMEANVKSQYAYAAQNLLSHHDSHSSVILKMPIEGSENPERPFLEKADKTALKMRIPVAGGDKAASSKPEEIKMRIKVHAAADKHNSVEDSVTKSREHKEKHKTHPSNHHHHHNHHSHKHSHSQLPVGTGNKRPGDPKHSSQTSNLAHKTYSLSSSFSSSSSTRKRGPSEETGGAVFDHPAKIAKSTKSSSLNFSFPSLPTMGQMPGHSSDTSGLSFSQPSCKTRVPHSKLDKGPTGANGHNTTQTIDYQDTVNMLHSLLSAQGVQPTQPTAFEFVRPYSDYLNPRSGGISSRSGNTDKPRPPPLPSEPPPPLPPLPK

## Fc1ccc2c(c1)nn1cnc(NC3CCOCC3)cc21 [VKT-320, 7-fluoro-N-(tetrahydro-2H-pyran-4-yl)pyrimido[1,6-b]indazol-3-amine]
[1]
  CC50 at 7 d: 50 µM
[2]
  CC50: 38.5 µM
[3]
  pEC50: 4.66
  EC90: 44.2 µM
CDK9/cyclin T1
  pIC50: 5.77
[4]
  CC50: 50 µM
[5]
  pEC50: 5.10
  EC90: 19.8 µM
HCMV strain AD169; read-out: EC50
  pEC50: 5.00
HCMV strain AD169; read-out: EC90
  EC90: 10 µM
[6]
  % Remaining at 60 min: 37%
[7]
  pEC50: 5.05
  EC90: 32.6 µM
[8]
  CC50: 50 µM
